Data: US20250127162A1, “METHODS AND COMPOSITIONS FOR CONTROLLING PESTS IN RICE” (Globachem NV, priority 2022, published 2025)

Tested on: Chilo suppressalis
Assay: Rice field trials, Chilo suppressalis insect damage / white heads (Example 1, Trials 3-4, Thailand)
Format: in vivo
Details: for percent reduction in insect damage relative to untreated control: UTC given as 0
Method: All applications were made with an EC formulation containing 650 g/L of pelargonic acid (e.g., 685 g/L of 95% purity pelargonic acid), an anionic emulsifier and a branched fatty acid ester solvent. […] Trials 1 4 assessing the use of pelargonic acid for controlling Chilo suppressalis in rice were conducted in Spain and Thailand. Application A was made to the crops at the beginning of infestations; for these trials, Stage BBCH 59; Application B was made 14 days after Application A. Trial 3 was conducted in Thailand using a water volume of 500 L/ha of water per application unless otherwise indicated. Insect Damage ([…] %), Insect Damage (Number) and Phytotoxicity were assessed at various treatment evaluation intervals. Population levels were recorded by counting number of rice plants per hill, number of white head (damage from rice stem borer) followed by calculation of % insect damage. Trial 4 was conducted in Thailand using a water volume of 500 L/ha of water per application unless otherwise indicated. Insect Damage ([…] %), Insect Damage (Number) and Phytotoxicity were assessed at various treatment evaluation intervals. Population levels were recorded by counting number of rice plants per hill, number of white head (damage from rice stem borer) followed by calculation of % insect damage.

[1] = Trial 3, 21 DAB, water volume 500 L/ha, rate in treatment name, Prevathon 0.5 L/ha, listed as PA 2600 g/ha
[2] = Trial 4, 0 DAA, water volume 200 L/ha
[3] = Trial 4, 0 DAB, water volume 200 L/ha
[4] = Trial 4, 0 DAB, water volume 500 L/ha, rate in treatment name, Prevathon 0.5 L/ha, listed as PA 585 g/ha
[5] = Trial 4, 0 DAB, water volume 500 L/ha, rate in treatment name, Prevathon 0.5 L/ha, listed as PA 975 g/ha
[6] = Trial 4, 0 DAB, water volume 500 L/ha, rate in treatment name, Prevathon 0.5 L/ha, listed as PA 1300 g/ha
[7] = Trial 4, 0 DAB, water volume 500 L/ha, rate in treatment name, Prevathon 0.5 L/ha, listed as PA 2600 g/ha
[8] = Trial 4, 7 DAA, water volume 200 L/ha
[9] = Trial 4, 7 DAA, water volume 500 L/ha, rate in treatment name, Prevathon 0.5 L/ha, listed as PA 585 g/ha
[10] = Trial 4, 7 DAA, water volume 500 L/ha, rate in treatment name, Prevathon 0.5 L/ha, listed as PA 975 g/ha
[11] = Trial 4, 7 DAA, water volume 500 L/ha, rate in treatment name, Prevathon 0.5 L/ha, listed as PA 1300 g/ha
[12] = Trial 4, 7 DAA, water volume 500 L/ha, rate in treatment name, Prevathon 0.5 L/ha, listed as PA 2600 g/ha
[13] = Trial 4, 7 DAB, water volume 200 L/ha
[14] = Trial 4, 7 DAB, water volume 500 L/ha, rate in treatment name, Prevathon 0.5 L/ha, listed as PA 585 g/ha
[15] = Trial 4, 7 DAB, water volume 500 L/ha, rate in treatment name, Prevathon 0.5 L/ha, listed as PA 975 g/ha
[16] = Trial 4, 7 DAB, water volume 500 L/ha, rate in treatment name, Prevathon 0.5 L/ha, listed as PA 1300 g/ha
[17] = Trial 4, 7 DAB, water volume 500 L/ha, rate in treatment name, Prevathon 0.5 L/ha, listed as PA 2600 g/ha
[18] = Trial 4, 10 DAA, water volume 200 L/ha
[19] = Trial 4, 10 DAA, water volume 500 L/ha, rate in treatment name, Prevathon 0.5 L/ha, listed as PA 585 g/ha
[20] = Trial 4, 10 DAA, water volume 500 L/ha, rate in treatment name, Prevathon 0.5 L/ha, listed as PA 975 g/ha
[21] = Trial 4, 10 DAA, water volume 500 L/ha, rate in treatment name, Prevathon 0.5 L/ha, listed as PA 1300 g/ha
[22] = Trial 4, 10 DAA, water volume 500 L/ha, rate in treatment name, Prevathon 0.5 L/ha, listed as PA 2600 g/ha
[23] = Trial 4, 10 DAB, water volume 200 L/ha
[24] = Trial 4, 10 DAB, water volume 500 L/ha, rate in treatment name, Prevathon 0.5 L/ha, listed as PA 585 g/ha
[25] = Trial 4, 10 DAB, water volume 500 L/ha, rate in treatment name, Prevathon 0.5 L/ha, listed as PA 975 g/ha
[26] = Trial 4, 10 DAB, water volume 500 L/ha, rate in treatment name, Prevathon 0.5 L/ha, listed as PA 1300 g/ha
[27] = Trial 4, 10 DAB, water volume 500 L/ha, rate in treatment name, Prevathon 0.5 L/ha, listed as PA 2600 g/ha
[28] = Trial 4, 14 DAB, water volume 200 L/ha
[29] = Trial 4, 14 DAB, water volume 500 L/ha, rate in treatment name, Prevathon 0.5 L/ha, listed as PA 585 g/ha
[30] = Trial 4, 14 DAB, water volume 500 L/ha, rate in treatment name, Prevathon 0.5 L/ha, listed as PA 975 g/ha
[31] = Trial 4, 14 DAB, water volume 500 L/ha, rate in treatment name, Prevathon 0.5 L/ha, listed as PA 1300 g/ha
[32] = Trial 4, 14 DAB, water volume 500 L/ha, rate in treatment name, Prevathon 0.5 L/ha, listed as PA 2600 g/ha
[33] = Trial 4, 21 DAB, water volume 200 L/ha
[34] = Trial 4, 21 DAB, water volume 500 L/ha, rate in treatment name, Prevathon 0.5 L/ha, listed as PA 585 g/ha
[35] = Trial 4, 21 DAB, water volume 500 L/ha, rate in treatment name, Prevathon 0.5 L/ha, listed as PA 975 g/ha
[36] = Trial 4, 21 DAB, water volume 500 L/ha, rate in treatment name, Prevathon 0.5 L/ha, listed as PA 1300 g/ha
[37] = Trial 4, 21 DAB, water volume 500 L/ha, rate in treatment name, Prevathon 0.5 L/ha, listed as PA 2600 g/ha

SMILES: CCCCCCCCC(=O)O [PA 650 g/ha, pelargonic acid]
- DAMINS % (insect damage, % white heads) [1]: 0.19%
- DAMINS (number): mean number of insect damage (white head symptoms) [1]: 0.75
- DAMINS (number): mean number of insect damage (white head symptoms) [2]: 5.5
- percent reduction in insect damage relative to untreated control [2]: 0%
- percent reduction in insect damage relative to untreated control (Trial 4, 0 DAA, water volume 500 L/ha, rate in treatment name, Prevathon 0.5 L/ha): 0%
- DAMINS (number): mean number of insect damage (white head symptoms) (Trial 4, 0 DAA, water volume 500 L/ha, rate in treatment name, Prevathon 0.5 L/ha, listed as PA 585 g/ha): 4.57
- DAMINS (number): mean number of insect damage (white head symptoms) (Trial 4, 0 DAA, water volume 500 L/ha, rate in treatment name, Prevathon 0.5 L/ha, listed as PA 975 g/ha): 5.19
- DAMINS (number): mean number of insect damage (white head symptoms) (Trial 4, 0 DAA, water volume 500 L/ha, rate in treatment name, Prevathon 0.5 L/ha, listed as PA 1300 g/ha): 5.23
- DAMINS (number): mean number of insect damage (white head symptoms) (Trial 4, 0 DAA, water volume 500 L/ha, rate in treatment name, Prevathon 0.5 L/ha, listed as PA 2600 g/ha): 5.07
- DAMINS (number): mean number of insect damage (white head symptoms) [3]: 1.36
- percent reduction in insect damage relative to untreated control [3]: 71.53%
- percent reduction in insect damage relative to untreated control [4]: 22.87%
- percent reduction in insect damage relative to untreated control [5]: 28.25%
- percent reduction in insect damage relative to untreated control [6]: 38.54%
- percent reduction in insect damage relative to untreated control [7]: 67.46%
- DAMINS (number): mean number of insect damage (white head symptoms) [4]: 3.57
- DAMINS (number): mean number of insect damage (white head symptoms) [5]: 3.34
- DAMINS (number): mean number of insect damage (white head symptoms) [6]: 2.88
- DAMINS (number): mean number of insect damage (white head symptoms) [7]: 1.49
- DAMINS (number): mean number of insect damage (white head symptoms) [8]: 2.94
- percent reduction in insect damage relative to untreated control [8]: 62.66%
- percent reduction in insect damage relative to untreated control [9]: 15.96%
- percent reduction in insect damage relative to untreated control [10]: 22.58%
- percent reduction in insect damage relative to untreated control [11]: 44.41%
- percent reduction in insect damage relative to untreated control [12]: 51.10%
- DAMINS (number): mean number of insect damage (white head symptoms) [9]: 6.67
- DAMINS (number): mean number of insect damage (white head symptoms) [10]: 6.09
- DAMINS (number): mean number of insect damage (white head symptoms) [11]: 4.38
- DAMINS (number): mean number of insect damage (white head symptoms) [12]: 3.87
- DAMINS (number): mean number of insect damage (white head symptoms) [13]: 0.76
- percent reduction in insect damage relative to untreated control [13]: 80.70%
- percent reduction in insect damage relative to untreated control [14]: 27.16%
- percent reduction in insect damage relative to untreated control [15]: 36.66%
- percent reduction in insect damage relative to untreated control [16]: 49.64%
- percent reduction in insect damage relative to untreated control [17]: 66.66%
- DAMINS (number): mean number of insect damage (white head symptoms) [14]: 2.86
- DAMINS (number): mean number of insect damage (white head symptoms) [15]: 2.52
- DAMINS (number): mean number of insect damage (white head symptoms) [16]: 1.93
- DAMINS (number): mean number of insect damage (white head symptoms) [17]: 1.32
- DAMINS (number): mean number of insect damage (white head symptoms) [18]: 1.76
- percent reduction in insect damage relative to untreated control [18]: 80.59%
- percent reduction in insect damage relative to untreated control [19]: 40.99%
- percent reduction in insect damage relative to untreated control [20]: 44.26%
- percent reduction in insect damage relative to untreated control [21]: 56.19%
- percent reduction in insect damage relative to untreated control [22]: 72.62%
- DAMINS (number): mean number of insect damage (white head symptoms) [19]: 5.33
- DAMINS (number): mean number of insect damage (white head symptoms) [20]: 4.99
- DAMINS (number): mean number of insect damage (white head symptoms) [21]: 3.94
- DAMINS (number): mean number of insect damage (white head symptoms) [22]: 2.48
- DAMINS (number): mean number of insect damage (white head symptoms) [23]: 1.06
- percent reduction in insect damage relative to untreated control [23]: 77.49%
- percent reduction in insect damage relative to untreated control [24]: 22.53%
- percent reduction in insect damage relative to untreated control [25]: 51.13%
- percent reduction in insect damage relative to untreated control [26]: 61.44%
- percent reduction in insect damage relative to untreated control [27]: 74.82%
- DAMINS (number): mean number of insect damage (white head symptoms) [24]: 3.71
- DAMINS (number): mean number of insect damage (white head symptoms) [25]: 2.35
- DAMINS (number): mean number of insect damage (white head symptoms) [26]: 1.86
- DAMINS (number): mean number of insect damage (white head symptoms) [27]: 1.19
- DAMINS (number): mean number of insect damage (white head symptoms) [28]: 0.9
- percent reduction in insect damage relative to untreated control [28]: 80.46%
- percent reduction in insect damage relative to untreated control [29]: 19.69%
- percent reduction in insect damage relative to untreated control [30]: 40.42%
- percent reduction in insect damage relative to untreated control [31]: 46.02%
- percent reduction in insect damage relative to untreated control [32]: 76.77%
- DAMINS (number): mean number of insect damage (white head symptoms) [29]: 3.78
- DAMINS (number): mean number of insect damage (white head symptoms) [30]: 2.74
- DAMINS (number): mean number of insect damage (white head symptoms) [31]: 2.54
- DAMINS (number): mean number of insect damage (white head symptoms) [32]: 1.1
- DAMINS (number): mean number of insect damage (white head symptoms) [33]: 1.24
- percent reduction in insect damage relative to untreated control [33]: 74.20%
- percent reduction in insect damage relative to untreated control [34]: 29.88%
- percent reduction in insect damage relative to untreated control [35]: 37.44%
- percent reduction in insect damage relative to untreated control [36]: 52.85%
- percent reduction in insect damage relative to untreated control [37]: 71.12%
- DAMINS (number): mean number of insect damage (white head symptoms) [34]: 3.3
- DAMINS (number): mean number of insect damage (white head symptoms) [35]: 2.96
- DAMINS (number): mean number of insect damage (white head symptoms) [36]: 2.26
- DAMINS (number): mean number of insect damage (white head symptoms) [37]: 1.38
